Laboratory results reported in the NIST ThermoML archive (doi:10.1021/je700672f).

Test: xn = mol fraction of the nth substance listed
Settings: 101 kPa, Liquid

OCCOCCO [diethylene glycol] + O
Settings	mass density [kg/m3]	viscosity [mPa·s]
283.15 K, x1 = 0.0255	1019.73	–
283.15 K, x1 = 0.0565	1040.15	–
283.15 K, x1 = 0.1027	1063.34	–
283.15 K, x1 = 0.1966	1091.18	–
283.15 K, x1 = 0.301	1106.34	–
283.15 K, x1 = 0.3989	1113.62	–
283.15 K, x1 = 0.5006	1117.88	–
283.15 K, x1 = 0.6011	1120.39	–
283.15 K, x1 = 0.7003	1121.98	–
283.15 K, x1 = 0.8051	1123.07	–
283.15 K, x1 = 0.892	1123.64	–
283.15 K, x1 = 1	1124.24	–
288.15 K, x1 = 0.0255	1018.61	–
288.15 K, x1 = 0.0565	1038.42	–
288.15 K, x1 = 0.1027	1060.91	–
288.15 K, x1 = 0.1966	1088.01	–
288.15 K, x1 = 0.301	1102.88	–
288.15 K, x1 = 0.3989	1110.06	–
288.15 K, x1 = 0.5006	1114.29	–
288.15 K, x1 = 0.6011	1116.8	–
288.15 K, x1 = 0.7003	1118.39	–
288.15 K, x1 = 0.8051	1119.47	–
288.15 K, x1 = 0.892	1120.05	–
288.15 K, x1 = 1	1120.65	–
293.15 K, x1 = 0.0255	1017.27	1.429
293.15 K, x1 = 0.0565	1036.53	2.223
293.15 K, x1 = 0.1027	1058.39	3.639
293.15 K, x1 = 0.1966	1084.81	7.452
293.15 K, x1 = 0.301	1099.4	12.6
293.15 K, x1 = 0.3989	1106.48	17.48
293.15 K, x1 = 0.5006	1110.68	22.22
293.15 K, x1 = 0.6011	1113.19	26
293.15 K, x1 = 0.7003	1114.79	29.46
293.15 K, x1 = 0.8051	1115.87	32.26
293.15 K, x1 = 0.892	1116.45	34.04
293.15 K, x1 = 1	1117.05	36.43
298.15 K, x1 = 0.0255	1015.72	–
298.15 K, x1 = 0.0565	1034.5	–
298.15 K, x1 = 0.1027	1055.77	–
298.15 K, x1 = 0.1966	1081.56	–
298.15 K, x1 = 0.301	1095.89	–
298.15 K, x1 = 0.3989	1102.89	–
298.15 K, x1 = 0.5006	1107.07	–
298.15 K, x1 = 0.6011	1109.59	–
298.15 K, x1 = 0.7003	1111.19	–
298.15 K, x1 = 0.8051	1112.27	–
298.15 K, x1 = 0.892	1112.86	–
298.15 K, x1 = 1	1113.47	–
303.15 K, x1 = 0.0255	1013.97	1.115
303.15 K, x1 = 0.0565	1032.33	1.674
303.15 K, x1 = 0.1027	1053.07	2.629
303.15 K, x1 = 0.1966	1078.28	5.148
303.15 K, x1 = 0.301	1092.36	8.358
303.15 K, x1 = 0.3989	1099.29	11.4
303.15 K, x1 = 0.5006	1103.45	14.15
303.15 K, x1 = 0.6011	1105.97	16.34
303.15 K, x1 = 0.7003	1107.58	18.48
303.15 K, x1 = 0.8051	1108.67	20
303.15 K, x1 = 0.892	1109.27	21.19
303.15 K, x1 = 1	1109.88	22.09
308.15 K, x1 = 0.0255	1011.83	–
308.15 K, x1 = 0.0565	1030.02	–
308.15 K, x1 = 0.1027	1050.27	–
308.15 K, x1 = 0.1966	1074.94	–
308.15 K, x1 = 0.301	1088.8	–
308.15 K, x1 = 0.3989	1095.67	–
308.15 K, x1 = 0.5006	1099.82	–
308.15 K, x1 = 0.6011	1102.36	–
308.15 K, x1 = 0.7003	1103.97	–
308.15 K, x1 = 0.8051	1105.06	–
308.15 K, x1 = 0.892	1105.68	–
308.15 K, x1 = 1	1106.29	–
313.15 K, x1 = 0.0255	1009.99	0.959
313.15 K, x1 = 0.0565	1027.57	1.298
313.15 K, x1 = 0.1027	1047.39	1.984
313.15 K, x1 = 0.1966	1071.56	3.716
313.15 K, x1 = 0.301	1085.22	5.847
313.15 K, x1 = 0.3989	1092.03	7.761
313.15 K, x1 = 0.5006	1096.18	9.506
313.15 K, x1 = 0.6011	1098.73	10.93
313.15 K, x1 = 0.7003	1100.35	12.22
313.15 K, x1 = 0.8051	1101.45	13.2
313.15 K, x1 = 0.892	1102.09	13.93
313.15 K, x1 = 1	1102.7	14.56
318.15 K, x1 = 0.0255	1007.73	–
318.15 K, x1 = 0.0565	1025.01	–
318.15 K, x1 = 0.1027	1044.41	–
318.15 K, x1 = 0.1966	1068.13	–
318.15 K, x1 = 0.301	1081.61	–
318.15 K, x1 = 0.3989	1088.37	–
318.15 K, x1 = 0.5006	1092.53	–
318.15 K, x1 = 0.6011	1095.08	–
318.15 K, x1 = 0.7003	1096.71	–
318.15 K, x1 = 0.8051	1097.83	–
318.15 K, x1 = 0.892	1098.49	–
318.15 K, x1 = 1	1099.11	–
323.15 K, x1 = 0.0255	1005.37	0.754
323.15 K, x1 = 0.0565	1022.33	1.031
323.15 K, x1 = 0.1027	1041.36	1.545
323.15 K, x1 = 0.1966	1064.65	2.783
323.15 K, x1 = 0.301	1077.97	4.231
323.15 K, x1 = 0.3989	1084.69	5.509
323.15 K, x1 = 0.5006	1088.85	6.694
323.15 K, x1 = 0.6011	1091.42	7.635
323.15 K, x1 = 0.7003	1093.07	8.477
323.15 K, x1 = 0.8051	1094.21	9.115
323.15 K, x1 = 0.892	1094.88	9.635
323.15 K, x1 = 1	1095.51	10.03
328.15 K, x1 = 0.0255	1002.86	–
328.15 K, x1 = 0.0565	1019.53	–
328.15 K, x1 = 0.1027	1038.21	–
328.15 K, x1 = 0.1966	1061.13	–
328.15 K, x1 = 0.301	1074.29	–
328.15 K, x1 = 0.3989	1080.98	–
328.15 K, x1 = 0.5006	1085.16	–
328.15 K, x1 = 0.6011	1087.74	–
328.15 K, x1 = 0.7003	1089.41	–
328.15 K, x1 = 0.8051	1090.57	–
328.15 K, x1 = 0.892	1091.26	–
328.15 K, x1 = 1	1091.91	–
333.15 K, x1 = 0.0255	1000.22	0.62
333.15 K, x1 = 0.0565	1016.62	0.849
333.15 K, x1 = 0.1027	1034.99	1.236
333.15 K, x1 = 0.1966	1057.55	2.147
333.15 K, x1 = 0.301	1070.58	3.202
333.15 K, x1 = 0.3989	1077.25	4.103
333.15 K, x1 = 0.5006	1081.43	4.917
333.15 K, x1 = 0.6011	1084.04	5.534
333.15 K, x1 = 0.7003	1085.74	6.12
333.15 K, x1 = 0.8051	1086.93	6.492
333.15 K, x1 = 0.892	1087.63	6.874
333.15 K, x1 = 1	1088.3	7.22
338.15 K, x1 = 0.0255	997.46	–
338.15 K, x1 = 0.0565	1013.61	–
338.15 K, x1 = 0.1027	1031.68	–
338.15 K, x1 = 0.1966	1053.92	–
338.15 K, x1 = 0.301	1066.84	–
338.15 K, x1 = 0.3989	1073.49	–
338.15 K, x1 = 0.5006	1077.69	–
338.15 K, x1 = 0.6011	1080.33	–
338.15 K, x1 = 0.7003	1082.06	–
338.15 K, x1 = 0.8051	1083.27	–
338.15 K, x1 = 0.892	1083.99	–
338.15 K, x1 = 1	1084.68	–
343.15 K, x1 = 0.0255	994.57	0.527
343.15 K, x1 = 0.0565	1010.51	0.71
343.15 K, x1 = 0.1027	1028.29	1.011
343.15 K, x1 = 0.1966	1050.24	1.703
343.15 K, x1 = 0.301	1063.06	2.514
343.15 K, x1 = 0.3989	1069.69	3.15
343.15 K, x1 = 0.5006	1073.93	3.731
343.15 K, x1 = 0.6011	1076.59	4.217
343.15 K, x1 = 0.7003	1078.36	4.617
343.15 K, x1 = 0.8051	1079.6	4.863
343.15 K, x1 = 0.892	1080.34	5.121
343.15 K, x1 = 1	1081.05	5.369
348.15 K, x1 = 0.0255	991.57	–
348.15 K, x1 = 0.0565	1007.27	–
348.15 K, x1 = 0.1027	1024.84	–
348.15 K, x1 = 0.1966	1046.51	–
348.15 K, x1 = 0.301	1059.24	–
348.15 K, x1 = 0.3989	1065.88	–
348.15 K, x1 = 0.5006	1070.14	–
348.15 K, x1 = 0.6011	1072.84	–
348.15 K, x1 = 0.7003	1074.63	–
348.15 K, x1 = 0.8051	1075.91	–
348.15 K, x1 = 0.892	1076.67	–
348.15 K, x1 = 1	1077.4	–
353.15 K, x1 = 0.0255	988.5	0.465
353.15 K, x1 = 0.0565	1004.07	0.606
353.15 K, x1 = 0.1027	1021.3	0.848
353.15 K, x1 = 0.1966	1042.72	1.392
353.15 K, x1 = 0.301	1055.38	2.043
353.15 K, x1 = 0.3989	1062.02	2.502
353.15 K, x1 = 0.5006	1066.32	2.942
353.15 K, x1 = 0.6011	1069.05	3.283
353.15 K, x1 = 0.7003	1070.89	3.593
353.15 K, x1 = 0.8051	1072.2	3.818
353.15 K, x1 = 0.892	1072.99	4.024
353.15 K, x1 = 1	1073.74	4.139
